In ChEMBL document CHEMBL1909046, “DrugMatrix in vitro pharmacology data”:

What was measured:
[1] = molecular target: T1, Muscarinic acetylcholine receptor M2 (Homo sapiens, UniProt P08172); type: cell membranes, CHO-K1, Membrane; conditions: cho-k1
T1 sequence (P08172 whole entry): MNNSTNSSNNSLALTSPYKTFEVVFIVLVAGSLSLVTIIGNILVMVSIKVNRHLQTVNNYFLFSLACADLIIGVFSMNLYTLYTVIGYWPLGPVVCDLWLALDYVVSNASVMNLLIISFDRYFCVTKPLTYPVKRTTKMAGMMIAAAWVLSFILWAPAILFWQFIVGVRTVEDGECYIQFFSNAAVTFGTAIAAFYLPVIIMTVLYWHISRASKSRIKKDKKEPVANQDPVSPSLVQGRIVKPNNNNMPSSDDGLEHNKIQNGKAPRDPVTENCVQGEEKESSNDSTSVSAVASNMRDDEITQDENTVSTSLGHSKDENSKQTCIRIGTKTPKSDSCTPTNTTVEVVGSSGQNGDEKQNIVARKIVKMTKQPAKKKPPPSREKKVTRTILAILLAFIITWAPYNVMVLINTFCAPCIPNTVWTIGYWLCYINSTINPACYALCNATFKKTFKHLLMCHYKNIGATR

Cytochrome P450 2C19 = Cytochrome P450 2C19 (Homo sapiens, UniProt P33261)
Cytochrome P450 2C19, sequence (P33261 whole entry): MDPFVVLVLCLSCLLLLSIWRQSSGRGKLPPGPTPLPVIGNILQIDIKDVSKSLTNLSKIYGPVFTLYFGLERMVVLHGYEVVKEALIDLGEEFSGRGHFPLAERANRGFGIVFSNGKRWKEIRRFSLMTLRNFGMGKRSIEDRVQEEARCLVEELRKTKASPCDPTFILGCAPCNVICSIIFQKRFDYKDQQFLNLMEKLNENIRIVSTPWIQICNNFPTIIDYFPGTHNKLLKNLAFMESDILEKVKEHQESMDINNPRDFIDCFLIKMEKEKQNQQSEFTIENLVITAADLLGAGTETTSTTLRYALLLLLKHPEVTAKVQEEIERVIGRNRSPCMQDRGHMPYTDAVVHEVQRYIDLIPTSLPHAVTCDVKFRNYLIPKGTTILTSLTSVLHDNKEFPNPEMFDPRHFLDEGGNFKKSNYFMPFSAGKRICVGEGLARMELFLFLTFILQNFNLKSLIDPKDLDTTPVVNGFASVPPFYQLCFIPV

Glucocorticoid receptor [2] = molecular target: T2, Glucocorticoid receptor (Homo sapiens, UniProt P04150); conditions: hela s3
T2 sequence (P04150 whole entry): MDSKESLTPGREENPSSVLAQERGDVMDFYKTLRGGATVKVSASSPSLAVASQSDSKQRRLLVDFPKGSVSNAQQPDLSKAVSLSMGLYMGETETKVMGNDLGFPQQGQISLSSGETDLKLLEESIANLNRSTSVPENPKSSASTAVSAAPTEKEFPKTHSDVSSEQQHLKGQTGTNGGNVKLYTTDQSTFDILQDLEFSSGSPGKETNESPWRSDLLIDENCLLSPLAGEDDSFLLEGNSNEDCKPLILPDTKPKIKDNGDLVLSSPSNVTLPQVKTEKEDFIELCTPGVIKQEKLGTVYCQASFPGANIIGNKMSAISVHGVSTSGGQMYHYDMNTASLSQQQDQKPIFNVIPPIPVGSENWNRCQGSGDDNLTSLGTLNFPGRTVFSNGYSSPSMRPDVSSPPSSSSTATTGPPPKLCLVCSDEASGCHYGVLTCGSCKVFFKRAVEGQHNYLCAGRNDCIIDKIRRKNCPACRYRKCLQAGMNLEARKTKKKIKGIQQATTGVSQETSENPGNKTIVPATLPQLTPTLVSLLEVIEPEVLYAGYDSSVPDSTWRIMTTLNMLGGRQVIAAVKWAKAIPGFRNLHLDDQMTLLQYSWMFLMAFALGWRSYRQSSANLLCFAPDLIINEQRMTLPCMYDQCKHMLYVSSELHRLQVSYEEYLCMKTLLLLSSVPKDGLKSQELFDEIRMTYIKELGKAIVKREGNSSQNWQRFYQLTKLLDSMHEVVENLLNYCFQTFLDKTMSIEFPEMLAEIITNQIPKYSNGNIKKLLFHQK

Cytochrome P450 2C9 = Cytochrome P450 2C9 (Homo sapiens, UniProt P11712)
Cytochrome P450 2C9, sequence (P11712 whole entry): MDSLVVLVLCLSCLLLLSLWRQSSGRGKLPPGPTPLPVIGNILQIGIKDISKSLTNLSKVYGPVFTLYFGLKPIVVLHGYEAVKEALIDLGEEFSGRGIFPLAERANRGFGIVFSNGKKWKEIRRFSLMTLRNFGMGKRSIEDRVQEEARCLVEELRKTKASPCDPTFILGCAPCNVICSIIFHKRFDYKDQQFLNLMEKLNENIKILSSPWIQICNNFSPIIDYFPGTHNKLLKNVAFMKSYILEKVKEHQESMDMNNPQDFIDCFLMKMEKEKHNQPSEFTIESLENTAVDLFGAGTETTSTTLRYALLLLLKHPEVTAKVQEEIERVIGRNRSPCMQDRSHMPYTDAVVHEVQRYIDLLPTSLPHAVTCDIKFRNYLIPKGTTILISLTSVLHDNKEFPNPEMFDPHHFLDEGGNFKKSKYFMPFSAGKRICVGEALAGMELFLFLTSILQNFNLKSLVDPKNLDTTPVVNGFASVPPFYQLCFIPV

Androgen receptor = molecular target: T3, Androgen receptor (Rattus norvegicus, UniProt P15207)
T3 sequence (P15207 whole entry): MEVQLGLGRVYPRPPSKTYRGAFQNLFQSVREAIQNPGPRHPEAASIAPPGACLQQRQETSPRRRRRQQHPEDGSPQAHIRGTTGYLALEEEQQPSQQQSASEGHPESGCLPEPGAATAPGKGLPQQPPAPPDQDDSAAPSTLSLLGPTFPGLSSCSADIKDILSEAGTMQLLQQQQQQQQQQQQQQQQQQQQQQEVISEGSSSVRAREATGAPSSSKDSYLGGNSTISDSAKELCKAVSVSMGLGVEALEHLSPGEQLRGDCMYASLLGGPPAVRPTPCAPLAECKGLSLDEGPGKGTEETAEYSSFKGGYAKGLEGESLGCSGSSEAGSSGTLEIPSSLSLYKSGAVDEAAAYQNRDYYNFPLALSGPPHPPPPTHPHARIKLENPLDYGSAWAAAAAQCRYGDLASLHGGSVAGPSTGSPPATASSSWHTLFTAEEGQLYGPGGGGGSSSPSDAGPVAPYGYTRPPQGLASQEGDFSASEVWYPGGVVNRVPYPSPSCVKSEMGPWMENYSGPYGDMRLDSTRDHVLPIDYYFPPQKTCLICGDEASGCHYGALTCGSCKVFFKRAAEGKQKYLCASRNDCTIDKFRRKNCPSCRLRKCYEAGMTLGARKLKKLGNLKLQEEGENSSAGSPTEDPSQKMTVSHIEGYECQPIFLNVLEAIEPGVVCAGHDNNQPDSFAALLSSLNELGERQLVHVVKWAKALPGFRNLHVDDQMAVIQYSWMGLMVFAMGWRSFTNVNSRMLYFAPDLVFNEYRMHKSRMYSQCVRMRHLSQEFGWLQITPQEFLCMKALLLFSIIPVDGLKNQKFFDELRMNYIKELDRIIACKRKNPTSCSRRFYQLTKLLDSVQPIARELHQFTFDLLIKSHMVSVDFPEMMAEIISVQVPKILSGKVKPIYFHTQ

Glucocorticoid receptor [3] = molecular target: T2, Glucocorticoid receptor; test: biochemical
Further: in other assays of this panel Not Active means under 50% inhibition at 10 µM.

| Compound | IC50 [1] | IC50 (Cytochrome P450 2C19) [nM] | IC50 (Glucocorticoid receptor [2]) | IC50 (Cytochrome P450 2C9) [nM] | IC50 (Androgen receptor) | IC50 (Glucocorticoid receptor [3]) [nM] | Ki (Glucocorticoid receptor [3]) [nM] |
| --- | --- | --- | --- | --- | --- | --- | --- |
| COc1ccccc1C(=O)N1CCC(Cc2ccccc2)CC1 | Not Active | 800 | Not Active | 2000 | Not Active |  |  |
| Cc1ccccc1C(=O)N1CCC(Cc2ccccc2)CC1 | Not Active | 600 | Not Active | 1000 | Not Active |  |  |
| CCOC(=O)C1=C(C)NC(C)=C(C(=O)OC)C1c1cccc([N+](=O)[O-])c1 (configuration not stated) [NITRENDIPINE] | Not Active | 3000 |  | 300 |  |  |  |
| C#C[C@]1(OC(C)=O)CC[C@H]2[C@@H]3CCC4=CC(=O)CC[C@@H]4[C@H]3CC[C@@]21C [NORETHINDRONE ACETATE] | Not Active | 800 |  |  |  | 646 | 293 |
